According to patent publication US12276039B2, “Crystal of europium compound and method for producing crystal of europium compound” (OHARA INC., priority 2020, dated 2025):

Tested on: Hela cancer cells
Assay: Toxicity evaluation: cell density of Hela cancer cells cultured with FA (folic acid)-modified particles
Type: cell-based
Settings: FA-modified particles on Hela cells, FIG. 9
Experimental: Particles of Examples 1 to 3 or Comparative Examples 1 to 2 were subjected to toxicity evaluation by cancer cell imaging and fluorescence intensity measurement by the following methods.
To 250 mg of the particles of Examples 1 to 3 or Comparative Examples 1 to 2, 12 ml of an HCl aqueous solution (pH=2) was added, and ultrasonic treatment was carried out. Next, a solution containing 0.78 ml (3.3 mmol) of 3-aminopropyltriethoxysilane (APTES) in 5 mL of ethanol was prepared and added to the ultrasonic-treated solution to obtain a mixed solution. The mixed solution was stirred for 20 hours at 40° C. (pH<6.5). […]
After the above cells were cultured, a polystyrene dish (TCPS) including cells was washed twice with 1 ml of phosphate buffered saline (PBS), then FA (folic acid)-modified particles which had not taken up by the cells were removed, 0.1 ml of 0.05% Trypsin-EDTA was placed in a TCPS including cells, followed by allowing to stand still in a CO2 incubator for 12 minutes, and cells were peeled off from TCPS. […] Thereafter, the supernatant was discarded, 20 ml of medium was added to the tube, pipetting was carried out about 20 times, 1 ml was aliquoted into 15 ml-tubes, the cell suspension was placed into a disposable hemocytometer using a micropipette outside a clean bench, the cell number was confirmed under a microscope, and the average value (cell/cm^2) was calculated. […]

## O.O.O.O.O.O.[Cl][Eu]([Cl])[Cl] [Comparative Example 2, Europium chloride hexahydrate]
3, 12, 24, 36 and 48 hours after spraying
  cell proliferation behavior (average cell density): a normal cell proliferation behavior was not observed
  cytotoxicity: cytotoxicity due to the elution
